pIC50: −log10 of the molar value. Read-outs that look alike come from different tables or passages of the source.
Tests used:
[1] = tested on: ovarian cancer patients with confirmed BRCA-1 mutations; details: phase I, monotherapy, oral, preliminary data; cited from earlier work
[2] = tested on: Capan-1 BRCA-2 mutated human pancreatic xenograft model; details: for Toxicity: number of death animals
Method: (§1) Balb, Nu/Nu male mice, from Harlan (Italy) or CD1 Nu/Nu female mice from CRI, were maintained in agreement with the European Communities Council Directive no. 86/609/EEC, in cages with paper filter cover, food and bedding sterilized and acidified water. Fragments of Capan-1 human pancreatic cancer tumors, MX-1 human breast cancer tumors and HCT-116 human colon carcinoma were implanted subcutaneously. KM-12 cells were grown in vitro and 3×106 in 0,2 ml were implanted subcutaneously. The treatment started when tumors were palpable.
(§2) Compounds of formula (I) were administered by oral route in a volume of 10 ml/kg at the indicated doses from day 1 to 12. Temozolomide was administered orally at the dose of 62.5 mg/kg for 5 days. When combined, compound of formula (I) was administered from day 1 to 12 and temozolomide from day 3 to day 7. Irinotecan was administered intravenous at the dose of 45 mg/kg 2 or 3 times every 4 days. When combined, compound of formula (I) was administered from day 1 to 8 or to 12 and irinotecan on day 3 and day 7 or and days 1, 5 and 9. Docetaxel was administered intravenously at the dose of 5 mg/kg once a week for three times. When combined, compound of formula (I) was administered from day 1 to 12 and docetaxel on days 1, 8 and 15.
(§3) Tumor growth and body weight were measured every 3 days. Tumor growth was assessed by caliper. The two diameters were recorded and the tumor weight was calculated according the following formula: length (mm)×width^2 /2. The effect of the antitumor treatment was evaluated as the delay in the onset of an exponential growth of the tumor (see for references Anticancer drugs 7:437-60, 1996). This delay (T-C value) was defined as the difference of time (in days) required for the treatment group (T) and the control group (C) tumors to reach a predetermined size (1 g). Toxicity was evaluated on the basis of number of death animals during the experiment.

[3] = tested on: KM-12 human colorectal cancer xenograft model pTEN mutated
Method: as §1, §2, §3

[4] = tested on: MX-1 human breast cancer xenograft model BRCA-1 mutated; details: MX-1 xenograft; for Toxicity: number of death animals
Method: as §1, §2, §3

[5] = tested on: HCT-116 human colorectal cancer xenograft model
Method: as §1, §2, §3

[6] = tested on: KM-12 human colon cancer cell line; assay: In vitro combination cytotoxic activity, cell proliferation (CellTiterGlo), 6 days; format: cell-based
Method: (§4) Materials and methods. Exponentially growing human cancer cell line (MDA-MB-436, MDA-MB-468, A-375, HCT-116, KM-12) was seeded and incubated at 37° C. in a humidified 5% CO2 atmosphere. Drugs were added to the experimental culture, and incubations were carried out at 37° C. for 6 days in the dark. Serial dilution curves were prepared in medium by using a liquid handler Multiprobe II (PerkinElmer). Scalar doses of the compound of formula (I) and antineoplastic agents were added to the medium 24 hours after seeding. Drug solutions were prepared immediately before use. At the end of treatment, cell proliferation was determined by an intracellular adenosine triphosphate monitoring system (CellTiterGlo- Promega) using an Envision (PerkinElmer) reader. Inhibitory activity was evaluated comparing treated versus control data using the Assay Explorer (MDL) program. The dose inhibiting 50% of cell growth was calculated using sigmoidal interpolation curve.

[7] = tested on: HCT-116 human colon cancer cell line; assay: as above; format: cell-based; details: single agent
Method: as §4

[8] = tested on: A-375 human melanoma cell line; assay: as above; format: cell-based; details: single agent
Method: as §4, with “Exponentially growing human cancer cell line (MDA-MB-436, MDA-MB-468, A-375, HCT-116, KM-12) was seeded and incubated at 37° C. in a humidified 5% CO2 atmosphere.” left out

[9] = Capan-1, Table 8, Compound 1 100 mg/kg oral, days 1 to 12
[10] = Compound 2 100 mg/kg oral, days 1 to 8 (footnote *)
[11] = Capan-1, Table 9, Compound 2 50 mg/kg oral, days 1 to 12
[12] = docetaxel 5 mg/kg intravenous, days 1, 8 and 15
[13] = Capan-1, Table 8, temozolomide 62.5 mg/kg oral, days 3 to 7
[14] = Capan-1, Table 9, temozolomide 62.5 mg/kg oral, days 3 to 7

O=C(c1cc(Cc2n[nH]c(=O)c3ccccc23)ccc1F)N1CCN(C(=O)C2CC2)CC1 [AZD2281]
partial responses [1]: 4 out of 10

NC(=O)c1cccc2c1C(=O)N(C1CCN(C3CCC(F)(F)CC3)CC1)C2 [Compound 1, 2-[1-(4,4-difluorocyclohexyl)piperidin-4-yl]-3-oxo-2,3-dihydro-1H-isoindole-4-carboxamide]
T-C [2, 9]: 5 days
Toxicity [2, 9]: 0/7

NC(=O)c1cc(F)cc2c1C(=O)N(C1CCN(C3CCC(F)(F)CC3)CC1)C2 [Compound 2, 2-[1-(4,4-difluorocyclohexyl)piperidin-4-yl]-6-fluoro-3-oxo-2,3-dihydro-1H-isoindole-4-carboxamide]
T-C ([3]; KM-12 xenograft, Compound 2 50 mg/kg oral, days 1 to 12): 1 days
Toxicity ([3]; mouse, in vivo, po, 50 mg/kg): 0/7
T-C [4, 10]: 2 days
Toxicity [4, 10]: 0/7
T-C [2, 11]: 6 days
Toxicity [2, 11]: 0/7
T-C ([5]; HCT-116 xenograft, Compound 2 50 mg/kg oral, days 1 to 8): 1 days
T-C ([5]; HCT-116 xenograft, Compound 2 100 mg/kg oral, days 1 to 8): 4 days
Toxicity ([5]; mouse, in vivo, po, 50 mg/kg): 0/7
Toxicity ([5]; mouse, in vivo, po, 100 mg/kg): 0/7
pIC50 ([6]; Homo sapiens, KM12, single agent): 4.71
pIC50 ([7]; Homo sapiens): 4.85
pIC50 [8]: 4.49

CC(=O)O[C@@]12CO[C@@H]1C[C@H](O)[C@@]1(C)C(=O)[C@H](O)C3=C(C)[C@@H](OC(=O)[C@H](O)[C@@H](NC(=O)OC(C)(C)C)c4ccccc4)C[C@@](O)([C@@H](OC(=O)c4ccccc4)[C@H]21)C3(C)C [Docetaxel, docetaxel, reference compound]
T-C [4, 12]: 3 days
Toxicity [4, 12]: 0/7

CCc1c2c(nc3ccc(OC(=O)N4CCC(N5CCCCC5)CC4)cc13)-c1cc3c(c(=O)n1C2)COC(=O)[C@]3(O)CC [Irinotecan, irinotecan, reference compound]
T-C ([3]; KM-12 xenograft, irinotecan 45 mg/kg intravenous, days 3 and 7): 1 days
Toxicity ([3]; KM-12 xenograft, irinotecan 45 mg/kg intravenous, days 3 and 7, number of death animals): 0/7
T-C ([5]; HCT-116 xenograft, irinotecan 45 mg/kg intravenous, days 1, 5 and 9): 16 days
Toxicity ([5]; HCT-116 xenograft, irinotecan 45 mg/kg intravenous, days 1, 5 and 9, number of death animals): 0/7

CCc1c2c(nc3ccc(O)cc13)-c1cc3c(c(=O)n1C2)COC(=O)[C@]3(O)CC [SN-38, reference compound]
pIC50 ([6]; single agent): 8.82
pIC50 [7]: 8.96

Cn1nnc2c(C(N)=O)ncn2c1=O [Temozolomide, temozolomide, reference compound]
T-C [2, 13]: 5 days
Toxicity [2, 13]: 0/7
T-C [2, 14]: 9 days
Toxicity [2, 14]: 0/7
pIC50 [8]: 3.03
